Test results published in article PMC4584933, “Establishing the pig as a large animal model for vaccine development against human cancer” (Frontiers in Genetics, 2015).

Columns and labels:
PBMCs = test: In vitro peptide stimulation of porcine PBMCs, IFN-γ release assay (ELISA); format: cell-based, pig; parameters: key to T cell response: “x” indicates that a response was found to this given peptide at least once; details: PBMCs of immunized pigs, 2 × 10^5/well, 5 μg/ml peptide, 67.5–70.0 h, IFN-γ ELISA; response = 2-fold increase vs day -2 and at least 25 pg/ml IFN-γ, found at least once; SLA restriction not included
SLA-1*07:02 = test: Peptide-MHC class I complex stability, scintillation proximity assay (SPA); parameters: species or system pig; details: biotinylated recombinant SLA heavy chain, 125I-β2m, excess unlabeled β2m, read every 40 min, number only if t1/2 ≥ 0.5 h, '-' = not stably binding
Experimental: (§1) The stability of the selected 198 peptides in complex with relevant SLA class I molecules and β2m was determined using a scintillation proximity assay (SPA), as previously described (Harndahl et al., [2011]). Briefly, biotinylated recombinant MHC class I heavy chains were attached to a streptavidin-coated scintillation microplate together with iodinated (^125I) β2m and candidate peptide resulting in a scintillation signal, which was consecutively measured every 40 min by a scintillation plate counter. The duration of this signal is directly correlated to the stability of the peptide-MHC class I-β2m complex under dissociating conditions and in the presence of excess unlabeled β2m (Harndahl et al., [2011]). Peptides with a half-life ≥ 0.5 h were selected as stable binders.

SLA-3*04:01 = test: as above; parameters: species or system pig; details: biotinylated recombinant SLA heavy chain, 125I-β2m, excess unlabeled β2m, read every 40 min, number only if t1/2 ≥ 0.5 h, '-' = not stably binding
Experimental: as §1

SLA-2*05:02 = test: as above; parameters: species or system pig; details: biotinylated recombinant SLA heavy chain, 125I-β2m, excess unlabeled β2m, read every 40 min, number only if t1/2 ≥ 0.5 h, '-' = not stably binding
Experimental: as §1

SLA-2*04:01 = test: as above; parameters: species or system pig; details: biotinylated recombinant SLA heavy chain, 125I-β2m, excess unlabeled β2m, read every 40 min, number only if t1/2 ≥ 0.5 h, '-' = not stably binding
Experimental: as §1

Row | Sequence | T cell response (PBMCs) | Binder (t1/2 ≥ 0.5 h): half-life of peptide-SLA-1*07:02 complex (SLA-1*07:02) | Binder (t1/2 ≥ 0.5 h): half-life of peptide-SLA-2*05:02 complex (SLA-2*05:02) | other results
1 | SPMDNSWKIF [IDO120, porcine IDO-derived 9-11mer peptide] | x | 156 min | – | –
2 | EPVRSEEGRDM [RhoC20, porcine RhoC-derived 9-11mer peptide] | – | 30 min | – | –
3 | PPAHRNFLH [IDO97, porcine IDO-derived 9-11mer peptide] | x | 66 min | – | –
4 | HLVLGYITM [IDO40, porcine IDO-derived 9-11mer peptide] | – | - (t1/2 (hours) is listed for each of the stably binding peptides (t1/2 ≥ 0.5 h)) | – | –
5 | KLGLPPILVY [IDO55, porcine IDO-derived 9-11mer peptide] | – | - (t1/2 (hours) is listed for each of the stably binding peptides (t1/2 ≥ 0.5 h)) | – | –
6 | HPYDAWIAIAK [IDO43, porcine IDO-derived 9-11mer peptide] | – | - (t1/2 (hours) is listed for each of the stably binding peptides (t1/2 ≥ 0.5 h)) | – | –
7 | HPYDAWIAI [IDO42, porcine IDO-derived 9-11mer peptide] | – | - (t1/2 (hours) is listed for each of the stably binding peptides (t1/2 ≥ 0.5 h)) | – | –
8 | KVLPRNIAI [IDO62, porcine IDO-derived 9-11mer peptide] | – | – | - (t1/2 (hours) is listed for each of the stably binding peptides (t1/2 ≥ 0.5 h)) | Binder (t1/2 ≥ 0.5 h): half-life of peptide-SLA-3*04:01 complex (SLA-3*04:01): - (t1/2 (hours) is listed for each of the stably binding peptides (t1/2 ≥ 0.5 h))
9 | LVLGYITMAY [IDO73, porcine IDO-derived 9-11mer peptide] | – | 240 min | – | Binder (t1/2 ≥ 0.5 h): half-life of peptide-SLA-2*04:01 complex (SLA-2*04:01): 48 min
10 | HLVLGYITMAY [IDO41, porcine IDO-derived 9-11mer peptide] | – | 30 min | – | –
11 | LPRNIAIPY [IDO70, porcine IDO-derived 9-11mer peptide] | x | 60 min | – | –
12 | SPMDNSWKI [IDO119, porcine IDO-derived 9-11mer peptide] | x | 114 min | – | –
13 | DPSGPMTYKNM [IDO12, porcine IDO-derived 9-11mer peptide] | x | 30 min | – | –
14 | PLLSEGLLY [IDO95, porcine IDO-derived 9-11mer peptide] | – | 42 min | – | –
15 | MPPAHRNFLH [IDO77, porcine IDO-derived 9-11mer peptide] | – | - (t1/2 (hours) is listed for each of the stably binding peptides (t1/2 ≥ 0.5 h)) | – | –
16 | YHLQIVTKY [IDO134, porcine IDO-derived 9-11mer peptide] | – | - (t1/2 (hours) is listed for each of the stably binding peptides (t1/2 ≥ 0.5 h)) | – | Binder (t1/2 ≥ 0.5 h): half-life of peptide-SLA-2*04:01 complex (SLA-2*04:01): - (t1/2 (hours) is listed for each of the stably binding peptides (t1/2 ≥ 0.5 h))
17 | SLRNYHLQI [IDO118, porcine IDO-derived 9-11mer peptide] | – | – | - (t1/2 (hours) is listed for each of the stably binding peptides (t1/2 ≥ 0.5 h)) | Binder (t1/2 ≥ 0.5 h): half-life of peptide-SLA-3*04:01 complex (SLA-3*04:01): - (t1/2 (hours) is listed for each of the stably binding peptides (t1/2 ≥ 0.5 h))
18 | NSWKIFEEY [IDO89, porcine IDO-derived 9-11mer peptide] | – | - (t1/2 (hours) is listed for each of the stably binding peptides (t1/2 ≥ 0.5 h)) | – | Binder (t1/2 ≥ 0.5 h): half-life of peptide-SLA-2*04:01 complex (SLA-2*04:01): 42 min
19 | EVEKLATLSI [IDO20, porcine IDO-derived 9-11mer peptide] | x | – | 42 min | –
20 | LGLPPILVY [IDO65, porcine IDO-derived 9-11mer peptide] | – | - (t1/2 (hours) is listed for each of the stably binding peptides (t1/2 ≥ 0.5 h)) | – | Binder (t1/2 ≥ 0.5 h): half-life of peptide-SLA-2*04:01 complex (SLA-2*04:01): - (t1/2 (hours) is listed for each of the stably binding peptides (t1/2 ≥ 0.5 h))
21 | EVYVPTVFENY [RhoC25, porcine RhoC-derived 9-11mer peptide] | – | 264 min | – | Binder (t1/2 ≥ 0.5 h): half-life of peptide-SLA-2*04:01 complex (SLA-2*04:01): 36 min
22 | LPNPLEELPH [IDO69, porcine IDO-derived 9-11mer peptide] | – | - (t1/2 (hours) is listed for each of the stably binding peptides (t1/2 ≥ 0.5 h)) | – | –

Row | Sequence | T cell response (PBMCs) | Binder (t1/2 ≥ 0.5 h): half-life of peptide-SLA-1*07:02 complex (SLA-1*07:02) | Binder (t1/2 ≥ 0.5 h): half-life of peptide-SLA-2*05:02 complex (SLA-2*05:02) | other results
23 | LSYPDTDVIL [RhoC36, porcine RhoC-derived 9-11mer peptide] | x | – | 36 min | –
24 | FPGGDCGKGFF [IDO30, porcine IDO-derived 9-11mer peptide] | – | - (t1/2 (hours) is listed for each of the stably binding peptides (t1/2 ≥ 0.5 h)) | – | –
25 | NPLEELPHPY [IDO86, porcine IDO-derived 9-11mer peptide] | – | 312 min | – | –
26 | WKIFEEYHI [IDO131, porcine IDO-derived 9-11mer peptide] | x | – | 138 min | –
27 | YPDTDVILM [RhoC58, porcine RhoC-derived 9-11mer peptide] | x | 72 min | – | –
28 | PPILVYADCV [IDO99, porcine IDO-derived 9-11mer peptide] | x | 210 min | – | –
29 | YVPTVFENY [RhoC60, porcine RhoC-derived 9-11mer peptide] | – | - (t1/2 (hours) is listed for each of the stably binding peptides (t1/2 ≥ 0.5 h)) | – | Binder (t1/2 ≥ 0.5 h): half-life of peptide-SLA-2*04:01 complex (SLA-2*04:01): - (t1/2 (hours) is listed for each of the stably binding peptides (t1/2 ≥ 0.5 h))
30 | MTYKNMDIL [IDO80, porcine IDO-derived 9-11mer peptide] | – | – | - (t1/2 (hours) is listed for each of the stably binding peptides (t1/2 ≥ 0.5 h)) | Binder (t1/2 ≥ 0.5 h): half-life of peptide-SLA-3*04:01 complex (SLA-3*04:01): - (t1/2 (hours) is listed for each of the stably binding peptides (t1/2 ≥ 0.5 h)); Binder (t1/2 ≥ 0.5 h): half-life of peptide-SLA-2*04:01 complex (SLA-2*04:01): - (t1/2 (hours) is listed for each of the stably binding peptides (t1/2 ≥ 0.5 h))
31 | QAMVSLRNY [IDO100, porcine IDO-derived 9-11mer peptide] | – | - (t1/2 (hours) is listed for each of the stably binding peptides (t1/2 ≥ 0.5 h)) | – | –
32 | CPNVPIILV [RhoC5, porcine RhoC-derived 9-11mer peptide] | x | 42 min | – | –
33 | LLVEIAAASAI [IDO68, porcine IDO-derived 9-11mer peptide] | x | – | 30 min | –
34 | TVFENYIADI [RhoC51, porcine RhoC-derived 9-11mer peptide] | x | – | 54 min | –
35 | KGFFLVSLL [IDO49, porcine IDO-derived 9-11mer peptide] | – | – | - (t1/2 (hours) is listed for each of the stably binding peptides (t1/2 ≥ 0.5 h)) | Binder (t1/2 ≥ 0.5 h): half-life of peptide-SLA-3*04:01 complex (SLA-3*04:01): - (t1/2 (hours) is listed for each of the stably binding peptides (t1/2 ≥ 0.5 h))
36 | VSLRNYHLQI [IDO130, porcine IDO-derived 9-11mer peptide] | – | – | - (t1/2 (hours) is listed for each of the stably binding peptides (t1/2 ≥ 0.5 h)) | Binder (t1/2 ≥ 0.5 h): half-life of peptide-SLA-3*04:01 complex (SLA-3*04:01): - (t1/2 (hours) is listed for each of the stably binding peptides (t1/2 ≥ 0.5 h))
37 | NSWKIFEEYHI [IDO91, porcine IDO-derived 9-11mer peptide] | x | – | 126 min | –
38 | RPLSYPDTDV [RhoC46, porcine RhoC-derived 9-11mer peptide] | – | - (t1/2 (hours) is listed for each of the stably binding peptides (t1/2 ≥ 0.5 h)) | – | –
39 | SAIKVIPTLF [IDO114, porcine IDO-derived 9-11mer peptide] | x | – | - (t1/2 (hours) is listed for each of the stably binding peptides (t1/2 ≥ 0.5 h)) | Binder (t1/2 ≥ 0.5 h): half-life of peptide-SLA-2*04:01 complex (SLA-2*04:01): 30 min
40 | DLRQDEHTR [RhoC6, porcine RhoC-derived 9-11mer peptide] | x | – | 30 min | –
41 | ALQKALLDI [IDO5, porcine IDO-derived 9-11mer peptide] | x | – | - (t1/2 (hours) is listed for each of the stably binding peptides (t1/2 ≥ 0.5 h)) | –
42 | VPSGSAAGF [IDO128, porcine IDO-derived 9-11mer peptide] | – | - (t1/2 (hours) is listed for each of the stably binding peptides (t1/2 ≥ 0.5 h)) | – | Binder (t1/2 ≥ 0.5 h): half-life of peptide-SLA-2*04:01 complex (SLA-2*04:01): - (t1/2 (hours) is listed for each of the stably binding peptides (t1/2 ≥ 0.5 h))
43 | FLQEMRTYM [IDO24, porcine IDO-derived 9-11mer peptide] | – | - (t1/2 (hours) is listed for each of the stably binding peptides (t1/2 ≥ 0.5 h)) | – | –
